From US10377770B2 (Novartis AG, priority 2015, dated 2019)

molecular target: C-Raf FL (full length CRAF with Y340E and Y341E activating mutations, co-expressed with h14-3-3 zeta) (Homo sapiens (Human), UniProt P04049, Y340E/Y341E); assay: In vitro Raf activity determination, AlphaScreen p-MEK readout, c-Raf (C-Raf FL); type: biochemical; settings: c-Raf approximately 4 nM, ATP 1 μM, pre-incubation 60 minutes, reaction 1 hour
Summary of the method: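 Full-length C-Raf (~4 nM) pre-incubated 60 min at room temperature with compound and kinase-dead biotinylated MEK1 (~10 nM) in Tris pH 7.5, 15 mM MgCl2, BSA, DTT. Reaction started with 1 μM ATP and run 1 h at room temperature. Phospho-MEK detected by AlphaScreen with anti-p-MEK antibody.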

Chain of C-Raf FL (full length CRAF with Y340E and Y341E activating mutations, co-expressed with h14-3-3 zeta) (P04049 whole entry Y340E/Y341E): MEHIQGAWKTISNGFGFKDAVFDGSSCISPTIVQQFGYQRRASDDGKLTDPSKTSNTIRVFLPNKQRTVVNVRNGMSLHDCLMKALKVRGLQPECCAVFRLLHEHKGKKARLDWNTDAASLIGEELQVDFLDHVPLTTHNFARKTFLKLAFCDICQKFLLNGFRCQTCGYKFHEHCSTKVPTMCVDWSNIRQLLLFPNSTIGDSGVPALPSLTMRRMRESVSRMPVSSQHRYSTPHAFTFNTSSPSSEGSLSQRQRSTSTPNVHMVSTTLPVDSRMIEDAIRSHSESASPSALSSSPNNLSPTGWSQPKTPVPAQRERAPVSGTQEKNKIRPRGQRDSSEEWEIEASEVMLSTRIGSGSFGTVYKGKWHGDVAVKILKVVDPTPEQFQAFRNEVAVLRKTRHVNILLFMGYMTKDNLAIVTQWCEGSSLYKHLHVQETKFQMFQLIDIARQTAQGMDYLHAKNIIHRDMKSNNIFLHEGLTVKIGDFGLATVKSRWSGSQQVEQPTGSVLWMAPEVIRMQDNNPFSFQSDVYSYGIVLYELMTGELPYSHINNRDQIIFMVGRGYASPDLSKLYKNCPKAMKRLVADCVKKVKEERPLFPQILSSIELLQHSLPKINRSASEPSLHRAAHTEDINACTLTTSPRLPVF
Chain of C-Raf FL (full length CRAF with Y340E and Y341E activating mutations, co-expressed with h14-3-3 zeta) (P63104 whole entry partner): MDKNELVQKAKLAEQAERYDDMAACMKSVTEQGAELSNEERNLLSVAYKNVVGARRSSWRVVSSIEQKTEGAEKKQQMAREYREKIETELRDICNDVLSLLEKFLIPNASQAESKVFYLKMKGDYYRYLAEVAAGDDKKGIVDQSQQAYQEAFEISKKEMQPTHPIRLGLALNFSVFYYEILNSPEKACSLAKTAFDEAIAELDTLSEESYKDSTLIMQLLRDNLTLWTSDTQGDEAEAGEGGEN

Q: How did the IC50 turn out when `Cc1ccc(NC(=O)c2ccnc(C(F)(F)F)c2F)cc1-c1cnc2c(c1)C1C3COCC3C1C(=O)N2CCO` (stereo not drawn) [Example 280, 3-fluoro-N-(3-(5-(2-hydroxyethyl)-6-oxo-5,6,6a,6b,7,9,9a,9b-octahydrofuro[3′,4′: 3,4]cyclobuta[1,2-c][1,8]naphthyridin-2-yl)-4-methylphenyl)-2-(trifluoromethyl) isonicotinamide] was run?
A: 0.5 nM

Q: `Cc1ccc(NC(=O)c2ccnc(C(F)(F)F)c2)cc1-c1cnc2c(c1)C1C3COCC3C1C(=O)N2CCO` (stereo not drawn) [Example 281, N-(3-(5-(2-hydroxyethyl)-6-oxo-5,6,6a,6b,7,9,9a,9b-octahydrofuro[3′,4′: 3,4]cyclobuta[1,2-c][1,8]naphthyridin-2-yl)--4-methylphenyl)-2-(trifluoromethyl) isonicotinamide] was tested. Which IC50 did it give?
A: 0.2 nM

Q: `Cc1ccc(NC(=O)c2ccnc(C(F)(F)F)c2F)cc1-c1cnc2c(c1)C1C3COCC3C1C(=O)N2CCO` (stereo not drawn) [Example 283, 3-fluoro-N-(3-(5-(2-hydroxyethyl)-6-oxo-5,6,6a,6b,7,9,9a,9b-octahydrofuro[3′,4′: 3,4]cyclobuta[1,2-c][1,8]naphthyridin-2-yl)-4-methylphenyl)-2-(trifluoromethyl)-2-isonicotinamide] was tested. Which IC50 did it give?
A: 0.2 nM

Q: How did the IC50 turn out when `Cc1ncc(NC(=O)c2cccc(C(F)(F)F)c2)cc1-c1cnc2c(c1)C1CCOCCC1C(=O)N2CCO` (stereo not drawn) [Example 285, N-(5-(7-(2-hydroxyethyl)-6-oxo-1,2,4,5,5a,6,7,11b-octahydrooxepino [4,5-c][1,8]naphthyridin-10-yl)-6-methylpyridin-3-yl)-3-(trifluoromethyl) benzamide] was run?
A: 0.1 nM

Q: For `Cc1ccc(NC(=O)c2ccnc(C(C)(F)F)c2)cc1-c1cnc2c(c1)[C@@H]1CCOC[C@H]1C(=O)N2CC(C)(C)O` [Example 287, 2-(1,1-difluoroethyl)-N-(3-((4aS,10bR)-6-(2-hydroxy-2-methylpropyl)-5-oxo-2,4,4a,5,6,10b-hexahydro-1H-pyrano[3,4-c][1,8]naphthyridin-9-yl)-4-methylphenyl) isonicotinamide], which IC50 is on record?
A: 0.2 nM

Q: For `Cc1ccc(NC(=O)c2ccnc(C(F)(F)F)c2)cc1-c1cnc2c(c1)N1CCOC[C@H]1CC(=O)N2CC(C)(C)O` [Example 288, (R)-N-(3-(7-(2-hydroxy-2-methylpropyl)-6-oxo-2,4,4a,5,6,7-hexahydro-1H-[1,4]oxazino[4,3-d]pyrido[2,3-b][1,4]diazepin-10-yl)-4-methylphenyl)-2-(trifluoromethyl) isonicotinamide], which IC50 is on record?
A: 0.9 nM

Q: `Cc1ccc(NC(=O)c2ccnc(C(C)(F)F)c2)cc1-c1cnc2c(c1)N1CCOC[C@H]1CC(=O)N2CC(C)(C)O` [Example 289, (R)-2-(1,1-difluoroethyl)-N-(3-(7-(2-hydroxy-2-methylpropyl)-6-oxo-2,4,4a,5,6,7-hexahydro-1H-[1,4]oxazino[4,3-d]pyrido[2,3-b][1,4]diazepin-10-yl)-4-methylphenyl) isonicotinamide] was tested. Which IC50 did it give?
A: 0.9 nM

Q: With `Cc1ccc(NC(=O)c2ccnc(C(F)(F)F)c2F)cc1-c1cnc2c(c1)N1CCOC[C@H]1CC(=O)N2CC(C)(C)O` [Example 290, (R)-3-fluoro-N-(3-(7-(2-hydroxy-2-methylpropyl)-6-oxo-2,4,4a,5,6,7-hexahydro-1H-[1,4]oxazino[4,3-d]pyrido[2,3-b][1,4]diazepin-10-yl)-4-methylphenyl)-2-(trifluoromethyl) isonicotinamide] as the molecule, how does the IC50 read?
A: 1 nM

Q: `CCN1C[C@@H]2COCC[C@H]2c2cc(-c3cc(NC(=O)c4ccnc(C(F)(F)F)c4)ccc3C)cnc21` [Example 291, N-(3-((4aR, 10bR)-6-ethyl-2,4,4a,5,6,10b-hexahydro-1H-pyrano[3,4-c][1,8]naphthyridin-9-yl)-4-methylpheny)-2-(trifluoromethyl) isonicotinamide] was tested. Which IC50 did it give?
A: 0.1 nM

Q: How did the IC50 turn out when `CCN1C[C@@H]2COCC[C@H]2c2cc(-c3cc(NC(=O)c4ccnc(C(C)(F)F)c4)ccc3C)cnc21` [Example 292, 2-(1,1-difluoroethyl)-N-(3-((4aR, 10bR)-6-ethyl-2,4,4a,5,6,10b-hexahydro-1H-pyrano[3,4-c][1,8]naphthyridin-9-yl)-4-methylphenyl) isonicotinamide] was run?
A: 0.1 nM

Q: For `CCN1C[C@@H]2COCC[C@H]2c2cc(-c3cc(NC(=O)c4ccnc(C(F)(F)F)c4F)ccc3C)cnc21` [Example 293, N-(3-((4aR, 10bR)-6-ethyl-2,4,4a,5,6,10b-hexahydro-1H-pyrano[3,4-c][1,8]naphthyridin-9-yl)-4-methylphenyl)-3-fluoro-2-(trifluoromethyl) isonicotinamide], which IC50 is on record?
A: 0.1 nM

Q: Which IC50 does the source give for `CCN1C[C@@H]2COCC[C@H]2c2cc(-c3cc(NC(=O)c4cccc(C(F)(F)F)c4F)cnc3C)cnc21` [Example 294, N-(5-((4aR, 10bR)-6-ethyl-2,4,4a,5,6,10b-hexahydro-1H-pyrano[3,4-c][1,8]naphthyridin-9-yl)-6-methylpyridin-3-yl)-2-fluoro-3-(trifluoromethyl) benzamide] here?
A: 0.1 nM

Q: How did the IC50 turn out when `CCN1C[C@@H]2COCC[C@H]2c2cc(-c3cc(NC(=O)c4cccc(C(F)(F)F)c4)cnc3C)cnc21` [Example 295, N-(5-((4aR, 10bR)-6-ethyl-2,4,4a,5,6,10b-hexahydro-1H-pyrano[3,4-c][1,8]naphthyridin-9-yl)-6-methylpyridin-3-yl)-3-(trifluoromethyl) benzamide] was run?
A: 0.1 nM

Q: For `CCN1C(=O)OC2COCCC2c2cc(-c3cc(NC(=O)c4cccc(C(F)(F)F)c4)cnc3C)cnc21` [Example 296, N-(5-((4aS,11bR- cis)-7-ethyl-6-oxo-2,4,4a,6,7,11b-hexahydro-1H-pyrano[4,3-f]pyrido[2,3-d][1,3]oxazepin-10-yl)-6-methylpyridin-3-yl)-3-(trifluoromethyl) benzamide], which IC50 is on record?
A: 1.8 nM

Q: How did the IC50 turn out when `CCN1C(=O)OC2COCCC2c2cc(-c3cc(NC(=O)c4ccnc(C(F)(F)F)c4)ccc3C)cnc21` [Example 297, N-(3-((4aS,11bR- cis)7-ethyl-6-oxo-2,4,4a,6,7,11b-hexahydro-1H-pyrano[4,3-f]pyrido[2,3-d][1,3]oxazepin-10-yl)-4-methylphenyl)-2-(trifluoromethyl) isonicotinamide] was run?
A: 0.2 nM

Q: `CCN1C(=O)OC2COCCC2c2cc(-c3cc(NC(=O)c4cccc(C(F)(F)F)c4)cnc3C)cnc21` [Example 298, N-(5-((4aS,11bR- cis)-7-ethyl-6-oxo-2,4,4a,6,7,11b-hexahydro-1H-pyrano[4,3-f]pyrido[2,3-d][1,3]oxazepin-10-yl)-6-methylpyridin-3-yl)-3-(trifluoromethyl) benzamide] was tested. Which IC50 did it give?
A: 0.3 nM

Q: `CCN1C(=O)OC2COCCC2c2cc(-c3cc(NC(=O)c4ccnc(C(F)(F)F)c4F)ccc3C)cnc21` [Example 299, N-(3-((4aS,11bR- cis)-7-ethyl-6-oxo-2,4,4a,6,7,11b-hexahydro-1H-pyrano[4,3-f]pyrido[2,3-d][1,3]oxazepin-10-yl)-4-methylphenyl)-3-fluoro-2-(trifluoromethyl) isonicotinamide] was tested. Which IC50 did it give?
A: 0.1 nM

Q: With `CCN1C(=O)OC2COCCC2c2cc(-c3cc(NC(=O)c4cccc(C(F)(F)F)c4F)cnc3C)cnc21` [Example 300, N-(5-((4aS,11bR- cis)-7-ethyl-6-oxo-2,4,4a,6,7,11b-hexahydro-1H-pyrano[4,3-f]pyrido[2,3-d][1,3]oxazepin-10-yl)-6-methylpyridin-3-yl)-2-fluoro-3-(trifluoromethyl) benzamide] as the molecule, how does the IC50 read?
A: 0.2 nM
